Assay results published in patent US9180122B2, “5- or 6-substituted 3-hydroxy-2 (1 H)-pyridinones as D-amino acid oxidase (DAAO) inhibitors in therapy of diseases such as schizophrenia, cognitive disorder and pain” (Takeda Pharmaceutical Company Limited, priority 2011, dated 2015).

molecular target: Human DAAO enzyme (Homo sapiens (Human), UniProt P14920); assay: In Vitro DAAO Enzyme Assay (Amplex Red detection of H2O2 from D-Serine); assay type: biochemical; conditions: 10 mM D-Serine, 60 minutes at 25° C.
Sequence (P14920 whole entry): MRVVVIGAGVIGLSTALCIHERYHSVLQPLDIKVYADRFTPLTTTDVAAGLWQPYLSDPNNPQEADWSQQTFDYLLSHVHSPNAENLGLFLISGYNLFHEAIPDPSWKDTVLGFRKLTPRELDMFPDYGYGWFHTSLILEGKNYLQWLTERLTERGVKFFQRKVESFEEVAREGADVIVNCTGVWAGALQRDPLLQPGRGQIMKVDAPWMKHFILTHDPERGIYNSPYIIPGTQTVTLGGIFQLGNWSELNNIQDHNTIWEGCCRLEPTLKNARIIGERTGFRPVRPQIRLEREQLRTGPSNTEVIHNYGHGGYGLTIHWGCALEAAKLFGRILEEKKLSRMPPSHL
Protocol: The functional activity of compounds inhibiting the DAAO enzyme was determined by utilizing the co-product of the catalysis of D-Serine, H2O2 which can be quantitatively measured using the Amplex Red (Invitrogen) detection. Amplex® Red reagent is a colorless substrate that reacts with hydrogen peroxide (H2O2) with a 1:1 stoichiometry in the presence of […] to produce highly fluorescent resorufin (excitation/emission maxima=570/585 nm). The changes in fluorescence were monitored by a fluorescence plate reader, Envision (Perkin Elmer) and increases in DAAO activity were readily detected upon addition of D-Serine and suppression of this response observed with the application of test compounds.
The Km of D-Serine was measured for each enzyme batch to maintain consistency; this Km was used in subsequent assays.
On the day of the assay compounds were serially diluted in DMSO before being diluted 1:20 with assay buffer (20 mM Tris ph 7.4). A 5 μl portion of assay buffer was added to the wells of a 384 clear base black walled plate (Corning), 5 μl of diluted compound was then added via automated plate to plate transfer using the Bravo liquid handler (Agilent technologies) followed by 5 μl of human DAAO enzyme and then 5 μl D-Serine 50 mM was added to all but the negative control wells (final concentration of 10 mM). Finally 5 μl Amplex red reagent (Invitrogen) was added to all wells as per manufacturer's protocol. The plate was incubated for 60 minutes in the dark at 25° C. and the fluorescence in each well was measured in the Envision plate reader.
The IC50 values for compounds were determined from ten point half log scale dose-response studies and represent the concentration of compound required to […] 50% inhibition of DAAO activity in the presence of 10 mM D-Serine. Concentration response curves were generated using the average of duplicate wells for each data point and analyzed using nonlinear regression and four parameter curve fit.

Question: How did the IC50 turn out when `O=c1[nH]cc(SCc2ccccc2)cc1O` [Example 1, 5-(Benzylsulfanyl)-3-hydroxypyridin-2(1H)-one] was run?
Answer: 190 nM

Question: With `O=c1[nH]cc(SCc2ccc(Cl)cc2)cc1O` [Example 2, 5-[(4-Chlorobenzyl)sulfanyl]-3-hydroxypyridin-2(1H)-one] as the compound, how does the IC50 read?
Answer: 35 nM

Question: Which IC50 does the source give for `Cc1ccc(CSc2c[nH]c(=O)c(O)c2)cc1` [Example 3, 3-Hydroxy-5-[(4-methylbenzyl)sulfanyl]pyridin-2(1H)-one] here?
Answer: 29 nM

Question: How did the IC50 turn out when `Cc1cccc(CSc2c[nH]c(=O)c(O)c2)c1` [Example 4, 3-Hydroxy-5-[(3-methylbenzyl)sulfanyl]pyridin-2(1H)-one] was run?
Answer: 240 nM

Question: How did the IC50 turn out when `O=c1[nH]cc(SCc2cccc(Cl)c2)cc1O` [Example 5, 5-[(3-Chlorobenzyl)sulfanyl]-3-hydroxypyridin-2(1H)-one] was run?
Answer: 55 nM

Question: How did the IC50 turn out when `CC(Sc1c[nH]c(=O)c(O)c1)c1ccccc1` (centres unmarked) [Example 6, 3-Hydroxy-5-[(1-phenylethyl)sulfanyl]pyridin-2(1H)-one] was run?
Answer: 1300 nM

Question: `O=c1[nH]cc(SCc2ccccc2Cl)cc1O` [Example 7, 5-[(2-Chlorobenzyl)sulfanyl]-3-hydroxypyridin-2(1H)-one] was tested. Which IC50 did it give?
Answer: 210 nM

Question: With `O=c1[nH]cc(SCc2cccc(C(F)(F)F)c2)cc1O` [Example 8, 3-Hydroxy-5-{[3-(trifluoromethyl)benzyl]sulfanyl}pyridin-2(1H)-one] as the compound, how does the IC50 read?
Answer: 190 nM

Question: How did the IC50 turn out when `Cc1ccccc1CSc1c[nH]c(=O)c(O)c1` [Example 9, 3-Hydroxy-5-[(2-methylbenzyl)sulfanyl]pyridin-2(1H)-one] was run?
Answer: 390 nM

Question: Which IC50 does the source give for `O=c1[nH]cc(SCc2cc(F)cc(Cl)c2)cc1O` [Example 10, 5-[(3-Chloro-5-fluorobenzyl)sulfanyl]-3-hydroxypyridin-2(1H)-one] here?
Answer: 230 nM

Question: With `O=c1[nH]cc(SCc2ccc(F)cc2)cc1O` [Example 11, 5-[(4-Fluorobenzyl)sulfanyl]-3-hydroxypyridin-2(1H)-one] as the compound, how does the IC50 read?
Answer: 47 nM

Question: For `CCc1ccc(CSc2c[nH]c(=O)c(O)c2)cc1` [Example 12, 5-[(4-Ethylbenzyl)sulfanyl]-3-hydroxypyridin-2(1H)-one], which IC50 is on record?
Answer: 79 nM

Question: With `O=c1[nH]cc(SCc2ccc(C(F)(F)F)nc2)cc1O` [Example 13, 3-Hydroxy-5-({[6-(trifluoromethyl)pyridin-3-yl]methyl}-sulfanyl)pyridin-2(1H)-one] as the compound, how does the IC50 read?
Answer: 160 nM

Question: How did the IC50 turn out when `Cc1cccnc1CSc1c[nH]c(=O)c(O)c1` [Example 14, 3-Hydroxy-5-{[(3-methylpyridin-2-yl)methyl]sulfanyl}pyridin-2(1H)-one] was run?
Answer: 1900 nM

Question: How did the IC50 turn out when `Cc1noc(C)c1CSc1c[nH]c(=O)c(O)c1` [Example 15, 5-{[(3,5-Dimethyl-1,2-oxazol-4-yl)methyl]sulfanyl}-3-hydroxypyridin-2(1H)-one] was run?
Answer: 1900 nM

Question: With `Cc1nc(CSc2c[nH]c(=O)c(O)c2)co1` [Example 16, 3-Hydroxy-5-{[(2-methyl-1,3-oxazol-4-yl)methyl]sulfanyl}-pyridin-2(1H)-one] as the compound, how does the IC50 read?
Answer: 1400 nM

Question: With `O=c1[nH]cc(SCc2ccccn2)cc1O` [Example 17, 3-Hydroxy-5-[(pyridin-2-ylmethyl)sulfanyl]pyridin-2(1H)-one] as the compound, how does the IC50 read?
Answer: 460 nM

Question: Which IC50 does the source give for `O=c1[nH]cc(SCc2ccncc2)cc1O` [Example 18, 3-Hydroxy-5-[(pyridin-4-ylmethyl)sulfanyl]pyridin-2(1H)-one] here?
Answer: 100 nM

Question: With `O=c1[nH]cc(SCc2ccc(Cl)cn2)cc1O` [Example 19, 5-{[(5-Chloropyridin-2-yl)methyl]sulfanyl}-3-hydroxypyridin-2(1H)-one] as the compound, how does the IC50 read?
Answer: 360 nM

Question: With `O=c1[nH]cc(SCc2ccc(F)c(F)c2)cc1O` [Example 20, 5-[(3,4-Difluorobenzyl)sulfanyl]-3-hydroxypyridin-2(1H)-one] as the compound, how does the IC50 read?
Answer: 45 nM

Question: Which IC50 does the source give for `COc1ccc(CSc2c[nH]c(=O)c(O)c2)cc1` [Example 21, 3-Hydroxy-5-[(4-methoxybenzyl)sulfanyl]pyridin-2(1H)-one] here?
Answer: 130 nM

Question: For `O=c1[nH]cc(SCc2cccnc2)cc1O` [Example 22, 3-Hydroxy-5-[(pyridin-3-ylmethyl)sulfanyl]pyridin-2(1H)-one], which IC50 is on record?
Answer: 250 nM

Question: `Cc1ccc(CSc2c[nH]c(=O)c(O)c2)nc1` [Example 23, 3-Hydroxy-5-{[(5-methylpyridin-2-yl)methyl]sulfanyl}pyridin-2(1H)-one] was tested. Which IC50 did it give?
Answer: 490 nM

Question: Which IC50 does the source give for `O=c1[nH]cc(SCc2cnccn2)cc1O` [Example 24, 3-Hydroxy-5-[(pyrazin-2-ylmethyl)sulfanyl]pyridin-2(1H)-one] here?
Answer: 1000 nM

Question: `COc1ccc(CSc2c[nH]c(=O)c(O)c2)cn1` [Example 25, 3-Hydroxy-5-{[(6-methoxypyridin-3-yl)methyl]-sulfanyl}-pyridin-2(1H)-one] was tested. Which IC50 did it give?
Answer: 83 nM

Question: How did the IC50 turn out when `Cc1ccccc1CCc1c[nH]c(=O)c(O)c1` [Example 26, 3-Hydroxy-5-(2-methylphenethyl)pyridin-2(1H)-one] was run?
Answer: 350 nM

Question: `O=c1[nH]cc(CCc2ccccc2)cc1O` [Example 27, 3-Hydroxy-5-(2-phenylethyl)pyridin-2(1H)-one] was tested. Which IC50 did it give?
Answer: 140 nM

Question: With `Cc1cccc(CCc2c[nH]c(=O)c(O)c2)c1` [Example 28, 3-Hydroxy-5-[2-(3-methylphenyl)ethyl]pyridin-2(1H)-one] as the compound, how does the IC50 read?
Answer: 260 nM

Question: `Cc1ccc(CCc2c[nH]c(=O)c(O)c2)cc1` [Example 29, 3-Hydroxy-5-[2-(4-methylphenyl)ethyl]pyridin-2(1H)-one] was tested. Which IC50 did it give?
Answer: 52 nM

Question: How did the IC50 turn out when `O=c1[nH]cc(CCc2ccc(F)cc2)cc1O` [Example 30, 5-[2-(4-Fluorophenyl)ethyl]-3-hydroxypyridin-2(1H)-one] was run?
Answer: 61 nM

Question: `O=c1[nH]cc(CCc2cccc(F)c2)cc1O` [Example 31, 5-[2-(3-Fluorophenyl)ethyl]-3-hydroxypyridin-2(1H)-one] was tested. Which IC50 did it give?
Answer: 130 nM

Question: `O=c1[nH]cc(CCc2ccccc2F)cc1O` [Example 32, 5-[2-(2-Fluorophenyl)ethyl]-3-hydroxypyridin-2(1H)-one] was tested. Which IC50 did it give?
Answer: 170 nM

Question: `O=c1[nH]cc(S(=O)(=O)Cc2ccccc2)cc1O` [Example 33, 5-(Benzylsulfonyl)-3-hydroxypyridin-2(1H)-one] was tested. Which IC50 did it give?
Answer: 490 nM

Question: With `O=c1[nH]cc(SCc2cccc(F)c2)cc1O` [Example 34, 5-[(3-Fluorobenzyl)sulfanyl]-3-hydroxypyridin-2(1H)-one] as the compound, how does the IC50 read?
Answer: 130 nM

Question: Which IC50 does the source give for `O=c1[nH]c(SCc2ccccc2)ccc1O` [Example 35, 6-(benzylsulfanyl)-3-hydroxypyridin-2(1H)-one] here?
Answer: 1400 nM
